# Assay results: US20080064048A1, “Methods for Selecting Proteins that are Readily Presented as Antigens on Dendritic Cells” (Medical and Biological Laboratories, Co., Ltd., priority 2004, published 2008)
# Where a SMILES comes first, the peptide text is derived from it. The star is where a group is joined. Cbz = O=C(OCc1ccccc1)*
# B1: biotin-labeled chicken ovalbumin (bOVA) (other, UniProt P01012 2-386, looked up)
# chain: GSIGAASMEFCFDVFKELKVHHANENIFYCPIAIMSALAMVYLGAKDSTRTQINKVVRFDKLPGFGDSIEAQCGTSVNVHSSLRDILNQITKPNDVYSFSLASRLYAEERYPILPEYLQCVKELYRGGLEPINFQTAADQARELINSWVESQTNGIIRNVLQPSSVDSQTAMVLVNAIVFKGLWEKAFKDEDTQAMPFRVTEQESKPVQMMYQIGLFRVASMASEKMKILELPFASGTMSMLVLLPDEVSGLEQLESIINFEKLTEWTSSNVMEERKIKVYLPRMKMEEKYNLTSVLMAMGITDVFSSSANLSGISSAESLKISQAVHAAHAEINEAGREVVGSAEAGVDAASVSEEFRADHPFLFCIKHIATNAVLFFGRCVSP
# modifications: biotin-labeled (sites not given)
# notes: Exogenous antigen added to mouse dendritic cells
# B2: Chicken ovalbumin (protein)
# chain: B1 chain
# notes: Chicken ovalbumin used as an antigen model
# B3: OVA-KDEL: OVA with KDEL (Lys-Asp-Glu-Leu) added to its C-terminus, SEQ ID NO: 14 (protein)
# chain: MGSIGAASMEFCFDVFKELKVHHANENIFYCPIAIMSALAMVYLGAKDSTRTQINKVVRFDKLPGFGDSIEAQCGTSVNVHSSLRDILNQITKPNDVYSFSLASRLYAEERYPILPEYLQCVKELYRGGLEPINFQTAADQARELINSWVESQTNGIIRNVLQPSSVDSQTAMVLVNAIVFKGLWEKAFKDEDTQAMPFRVTEQESKPVQMMYQIGLFRVASMASEKMKILELPFASGTMSMLVLLPDEVSGLEQLESIINFEKLTEWTSSNVMEERKIKVYLPRMKMEEKYNLTSVLMAMGITDVFSSSANLSGISSAESLKISQAVHAAHAEINEAGREVVGSAEAGVDAASVSEEFRADHPFLFCIKHIATNAVLFFGRCVSPASAEDYEYPSRSNGTKNNTSQASKDEL
# How the values were obtained:
# DC2.4 cells = test: Pulse-chase degradation of cell-bound bOVA (SA beads, SDS-PAGE, Western blot); assay type: cell-based, mouse; details: for effect of inhibitor on decrease (degradation) of cell-bound bOVA: DC2.4, bOVA 1 h pulse, chase up to 4 h, MG-132 10 μM, lactacystin 2 μM, NH4Cl 50 mM; for effect of ERAD inhibition on degradation of accumulated bOVA: DC2.4, thapsigargin 300 nM, tunicamycin 2 μg
# Procedure: Triton X-100 was used to lyse membranes. […] DC2.4 cells were pulsed with bOVA and chased. bOVA was recovered using SA beads, then separated by SDS-PAGE followed by Western blotting using SA-HRP Ctl: a control not containing inhibitors. […] Asterisks in the left panel indicate non-specific binding with SA-HRP.
# Next, DC2.4 cells were incubated with bOVA for one hour, and this was then chased for up to four hours. Cell-bound bOVA was recovered from total cell lysates by streptavidin-agarose and separated by SDS-PAGE.
# Depletion of Ca^2+ in the ER is known to inhibit ERAD. Thapsigargin (Tg) is known to decrease the Ca^2+ concentration in the ER lumen by binding to the ER membrane and functioning as an ionophore and to inhibit ERA D. Thus, in the presence of Tg, bOVA degradation by ERAD is predicted to be suppressed. DC2.4 cells were pulsed with bOVA in the presence of MG-132, then washed with PBS or with PBS containing 1 mM EGTA, and then chased for four hours.
# OT-I CD8+ T cells = test: Antigen presentation level: IL-2 production by OT-I CD8+ T cells (ELISA); assay type: cell-based, mouse; details: for effect of proteasome inhibitor on stimulation by OVA: DC2.4, OVA 250 μg/mL; for effect of proteasome inhibitor on stimulation by OVA / effect of proteasome inhibitor on stimulation by SIINFEKL peptide: lactastatin 10 μM, MG-132 25 μM; for effect of proteasome inhibitor on stimulation by SIINFEKL peptide: DC2.4, SIINFEKL 10 ng/mL
# Description: Whether knock-down of cellular components involved in ERAD decreases the cross-presentation of exogenous OVA antigen was examined using a system for evaluating the level of antigen presentation, which uses naive CD8^+ T cells from OT-I mice and DC2.4 cells. The DC2.4 cells used as a model of dendritic cells are of the H-2 Kb mouse MHC class I haplotype. OT-I (H-2 Kb) mice are transgenic mice expressing a T cell receptor (TCRα and β) that recognizes an antigenic peptide (SIINFEKL) (SEQ ID NO: 15) derived from OVA presented on the H-2 Kb molecules. The CD8^+ cells of OT-I mice are activated when they recognize OVA peptides presented by BMDCs derived from H-2 Kb mice or by DC2.4 cells. When OVA or bOVA is incubated with and affixed onto DC2.4 cells and the cells are further incubated with naive CD8^+ T cells of OT-I mice, the amount of IL-2 produced by OT-I CD8^+ T cells serves as an index of T-cell stimulation as a result of OVA antigen presented by DC2.4 cells.
# Parental or knocked-down DC2.4 cells were pre-incubated in a culture medium supplemented with 50 μg mL^−1 polymyxin B for 30 minutes in the presence or absence of lactacystin or MG-132, and incubated with OVA (250 μg mL^−1) or SIINFEKL (SEQ ID NO: 15) peptides (10 ng mL^−1) for six hours. The cells were washed, fixed with 1% paraformaldehyde, and aliquoted into microtiter plates (5×10^4 per well). 5×10^4 CD8^+ T cells purified from splenocytes of OT-1 mice using magnetic beads were added to each well and after a 24-hour incubation, the IL-2 secretion was measured by ELISA (BD Biosciences) in triplicate. […]
# OT-II CD4+ T cells = test: MHC class II antigen presentation: IL-2 production by OT-II CD4+ T cells; assay type: cell-based, mouse
# Procedure: DC2.4 cells pretreated in the presence of NH4Cl were cultured with OVA, and then the stimulation of OT-I CD8^+ T cells in response to MHC […] presentation (circles) and stimulation of OT-II CD4^+ T cells in response to MHC class II antigen presentation (triangles) was determined by measuring IL-2 production levels. IL-2 production level in the presence of NH4Cl was expressed as a ratio relative to the control (IL-2 production was 700 pg/mL relative to OT-I, and 20 pg/mL relative to OT-II).
# [1] = molecular target: OVA-derived antigenic peptide SIINFEKL presented on H-2 Kb on DC2.4 cells (chicken; mouse) (UniProt P01887); test: cell-based or functional assay
# TAP1 = molecular target: T1, TAP1 (mouse, UniProt P21958 1-724); test: co-immunoprecipitation with anti-TAP1 from DC2.4 lysate, SA-HRP blot
# T1 construct: Endogenous protein; also called TAP1/2
# T1 sequence (looked up): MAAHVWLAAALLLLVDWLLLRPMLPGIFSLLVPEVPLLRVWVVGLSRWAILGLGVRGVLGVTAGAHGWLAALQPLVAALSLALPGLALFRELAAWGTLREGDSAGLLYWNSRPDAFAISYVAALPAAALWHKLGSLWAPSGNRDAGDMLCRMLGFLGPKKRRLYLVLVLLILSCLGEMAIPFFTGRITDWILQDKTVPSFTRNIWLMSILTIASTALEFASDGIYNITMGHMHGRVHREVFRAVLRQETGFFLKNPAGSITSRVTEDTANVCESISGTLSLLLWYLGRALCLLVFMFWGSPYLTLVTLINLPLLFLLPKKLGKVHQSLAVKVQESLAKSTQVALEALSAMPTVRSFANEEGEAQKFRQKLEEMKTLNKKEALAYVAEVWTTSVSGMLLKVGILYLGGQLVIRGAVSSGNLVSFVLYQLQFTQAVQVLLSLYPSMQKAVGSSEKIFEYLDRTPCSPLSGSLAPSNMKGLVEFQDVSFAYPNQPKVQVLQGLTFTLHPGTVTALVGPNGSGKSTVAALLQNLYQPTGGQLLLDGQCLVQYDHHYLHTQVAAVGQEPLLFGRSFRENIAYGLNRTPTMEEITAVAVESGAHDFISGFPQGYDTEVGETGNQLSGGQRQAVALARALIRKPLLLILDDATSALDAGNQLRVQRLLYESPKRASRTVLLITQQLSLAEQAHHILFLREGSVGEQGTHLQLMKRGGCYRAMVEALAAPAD
# Procedure: (§1) DC2.4 cells were incubated with bOVA and subjected to co-immunoprecipitation with anti-Sec61α. bOVA was added at 2.5 mg mL⁻¹ to cell lysates before immunoprecipitation (the two left-hand lanes in each panel). After SDS-PAGE, blotting was performed using SA-HRP and anti-Sec61α antibody.
# (§2) 2×10⁷ DC2.4 or BMDC cells were cultured for four hours in a medium containing 10 μM MG-132 in the presence of bOVA at 250 μg mL⁻¹. Cells were lysed in 20 mM HEPES pH7.6 containing 1% digitonin and protease inhibitors to collect biotin-labeled samples. The samples were cleared of impurities in advance using protein G sepharose (Amersham Pharmacia Biotech), and after incubation with antibodies for precipitation (anti-Sec61β, anti Sec61α, anti-VCP, anti-BiP, anti-PDI, anti-calreticulin, anti-TAP1, and anti-TAP2), the immunoprecipitates were collected using protein G. When chicken anti-CHIP antibody was used, immunoprecipitates were collected using a rabbit anti-IgY column (a person, MBL). The precipitated samples were analyzed by SDS-PAGE and Western blotting.
# TAP2 = molecular target: T2, TAP2 (mouse, UniProt P36371 1-702); test: co-immunoprecipitation with anti-TAP2 from DC2.4 lysate, SA-HRP blot
# T2 construct: Endogenous protein; also called TAP1/2
# T2 sequence (looked up): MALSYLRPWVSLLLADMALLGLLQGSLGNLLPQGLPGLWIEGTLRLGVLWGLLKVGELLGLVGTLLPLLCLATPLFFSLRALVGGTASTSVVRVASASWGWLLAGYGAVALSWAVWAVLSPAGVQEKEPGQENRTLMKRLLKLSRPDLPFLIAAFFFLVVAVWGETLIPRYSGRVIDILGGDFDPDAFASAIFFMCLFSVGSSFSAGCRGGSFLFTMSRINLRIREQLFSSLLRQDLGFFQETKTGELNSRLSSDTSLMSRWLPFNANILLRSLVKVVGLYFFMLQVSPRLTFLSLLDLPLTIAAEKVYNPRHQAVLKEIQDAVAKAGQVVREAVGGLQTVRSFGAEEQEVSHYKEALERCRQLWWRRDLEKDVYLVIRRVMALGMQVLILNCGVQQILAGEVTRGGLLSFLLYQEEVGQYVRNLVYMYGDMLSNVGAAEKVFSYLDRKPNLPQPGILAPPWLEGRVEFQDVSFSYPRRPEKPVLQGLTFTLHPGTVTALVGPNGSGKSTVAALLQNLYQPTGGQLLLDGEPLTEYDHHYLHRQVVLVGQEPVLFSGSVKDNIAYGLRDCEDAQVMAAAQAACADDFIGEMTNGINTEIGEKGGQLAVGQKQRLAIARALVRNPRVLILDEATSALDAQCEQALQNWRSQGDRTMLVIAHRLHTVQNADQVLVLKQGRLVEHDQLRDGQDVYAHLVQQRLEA
# Procedure: as §1, §2
# [2] = DC2.4 pretreated with NH4Cl, cultured with OVA
# [3] = control without NH4Cl, DC2.4 cultured with OVA
molecule,measurement,setting,value
"Cl.N [NH4Cl, Ammonium chloride, reference compound]",effect of inhibitor on decrease (degradation) of cell-bound bOVA,DC2.4 cells,did not significantly affect
same,effect on presentation of the OVA antigen with MHC class to OT-I CD8+ T cells,OT-I CD8+ T cells; [2],did not reduce
same,effect on presentation of the OVA antigen with MHC class II to OT-II CD4+ cells,OT-II CD4+ T cells; [2],inhibited
C/C=C(/C)C(=O)O[C@H]1C(C)=C2[C@H]([C@@H]1OC(=O)CCCCCCC)[C@@](C)(OC(C)=O)C[C@H](OC(=O)CCC)[C@@]1(O)[C@H]2OC(=O)[C@@]1(C)O [Thapsigargin],effect of ERAD inhibition on degradation of accumulated bOVA,DC2.4 cells,inhibited
"CC(=O)N[C@@H](CSC(=O)[C@]1([C@@H](O)C(C)C)NC(=O)[C@H](C)[C@@H]1O)C(=O)O [lactacystin, reference compound]",effect of inhibitor on decrease (degradation) of cell-bound bOVA,DC2.4 cells,blocked
same,effect of proteasome inhibitor on stimulation by OVA,OT-I CD8+ T cells,suppressed
same,effect of proteasome inhibitor on stimulation by SIINFEKL peptide,OT-I CD8+ T cells,did not suppress
tunicamycin,effect of ERAD inhibition on degradation of accumulated bOVA,DC2.4 cells,inhibited
"CC(C)C[C@@H](C=O)NC(=O)[C@H](CC(C)C)NC(=O)[C@H](CC(C)C)NC(=O)OCc1ccccc1 [MG-132, reference compound] (Cbz-Leu-Leu-Leu-aldehyde)",effect of inhibitor on decrease (degradation) of cell-bound bOVA,DC2.4 cells,blocked
same,effect of proteasome inhibitor on stimulation by OVA,OT-I CD8+ T cells,suppressed
same,effect of proteasome inhibitor on stimulation by SIINFEKL peptide,OT-I CD8+ T cells,did not suppress
OT-I T cell receptor (TCRα and β) on CD8+ T cells of OT-I mice,IL-2 production level,[1],700 pg/mL
B1,binding result,TAP1,no binding
same,binding result,TAP2,no binding
B2,antigenicity for stimulation of CD8+ OT-I T cells (IL-2 production),"OT-I CD8+ T cells; DC2.4, dose-response OVA vs bOVA",equally antigenic
same,OVA stimulation of OT-I CD8+ T cells by knocked-down DC2.4 cells,"OT-I CD8+ T cells; Sec61 (S22), VCP (V41) or CHIP (C4) knocked down",reduction in OVA stimulation
same,IL-2 production by OT-I CD8+ T cells,OT-I CD8+ T cells; [3],700 pg/mL
same,IL-2 production by OT-II CD4+ T cells (control),OT-II CD4+ T cells; [3],20 pg/mL
B3,antigen presentation level compared with OVA,"OT-I CD8+ T cells; DC2.4, data not shown",stronger
